# Patent publication US11464749B2, “Bismuth-thiol compositions and methods of use” (Microbion Corporation, priority 2018, dated 2022)
# How the values were obtained:
# Bacteroides fragilis = conditions: B. fragilis MMX 123 (ATCC 25285); cited from earlier work
# Clostridium difficile = conditions: C. difficile MMX 4381 (ATCC 700057); cited from earlier work
# [1] = test system: Staphylococcus aureus (MRSA); assay: Broth microdilution MIC (Example 11)
# E. faecalis = assay: Broth microdilution MIC (Example 11); conditions: Enterococcus faecalis, VRE, VRE Lev^R Cip^R Ery^R
# S. pneumoniae [2] = assay: Broth microdilution MIC (Example 11); conditions: Streptococcus pneumoniae
# S. pyogenes = assay: Broth microdilution MIC (Example 11); conditions: Streptococcus pyogenes
# S. agalactiae = assay: Broth microdilution MIC (Example 11); conditions: Streptococcus agalactiae
# [3] = test system: vancomycin-intermediate Staphylococcus aureus (VISA); assay: Broth microdilution MIC (Example 12); conditions: Staphylococcus aureus, NRS13 / VISA, read-out: MIC values
# S. pneumoniae [4] = conditions: S. pneumoniae MMX 6837 (ATCC 49619); cited from earlier work
# [5] = ATCC49619, S. pneumoniae MMX 6837 (ATCC 49619), QC
# [6] = S. pneumoniae MMX 880, Lev^R SXT^R CC^R Ery^R Pen^R
# [7] = S. pneumoniae MMX 937, Mem^R SXT^R CC^R Ery^R Pen^R
# [8] = S. pneumoniae MMX 3959, CC^R Ery^R
# [9] = S. pneumoniae MMX 5440, Mem^R SXT^R CC^R Ery^R Pen^R
# [10] = S. pneumoniae MMX 5445, Mem^R SXT^R CC^R Ery^R Pen^R
# [11] = S. pneumoniae MMX 8133, Mem^R SXT^R CC^R Ery^R Pen^R
# [12] = S. pyogenes MMX 3820, ERY^R CLI^R
# [13] = S. pyogenes MMX 3929, ERY^R CC^R
# [14] = S. pyogenes MMX 5091, ERY^R CC^R
# [15] = S. agalactiae MMX 3741, ERY^R CC^R
# [16] = S. agalactiae MMX 3743, ERY^R CC^R
# [17] = S. agalactiae MMX 4077, ERY^R CC^R
# [18] = S. agalactiae MMX 4079, ERY^R CC^R Pen^R MEM^R
# [19] = S. agalactiae MMX 4086, ERY^R CC^R
Structure (SMILES),MIC (S. pneumoniae [2]; [5]) [µg/mL],MIC (S. pneumoniae [2]; [6]) [µg/mL],MIC (S. pneumoniae [2]; [7]) [µg/mL],MIC (S. pneumoniae [2]; [8]) [µg/mL],MIC (S. pneumoniae [2]; [9]) [µg/mL],MIC (S. pneumoniae [2]; [10]) [µg/mL],MIC (S. pneumoniae [2]; [11]) [µg/mL],"MIC (S. pyogenes; S. pyogenes MMX 3068, Ery^R) [µg/mL]",MIC (S. pyogenes; [12]) [µg/mL],"MIC (S. pyogenes; S. pyogenes MMX 3919, ERY^R) [µg/mL]",MIC (S. pyogenes; [13]) [µg/mL],MIC (S. pyogenes; [14]) [µg/mL],MIC (S. agalactiae; [15]) [µg/mL],MIC (S. agalactiae; [16]) [µg/mL],MIC (S. agalactiae; [17]) [µg/mL],MIC (S. agalactiae; [18]) [µg/mL],MIC (S. agalactiae; [19]) [µg/mL],also measured
CCC[C@@H]1C[C@@H](C(=O)N[C@@H]([C@H]2O[C@H](SC)[C@H](O)[C@@H](O)[C@H]2O)[C@H](C)Cl)N(C)C1 [clindamycin],0.06,> 8,> 8,> 8,> 8,> 8,> 8,0.06,1,0.12,> 8,> 8,> 8,> 8,> 8,> 8,> 8,"MIC, CLSI QC range (Bacteroides fragilis): (0.5-2)^1 ^ pg/mL; MIC, CLSI QC range (Clostridium difficile): (2-8) pg/mL; MIC ([1]; ATCC29213|MRSA|MSSA, S. aureus MMX 101 (ATCC 29213), QC, MSSA): 0.12 µg/mL; MIC ([1]; MRSA, S. aureus MMX 5373, MRSA Lev^R Cip^R CC^R Ery^R Ox^R): > 32 µg/mL; MIC ([1]; MRSA, S. aureus MMX 6311, MRSA Lev^R Cip^R CC^R Ery^R Ox^R): > 32 µg/mL; MIC ([1]; MRSA, S. aureus MMX 9203, MRSA Lev^R Cip^R Ery^R Ox^R): 0.12 µg/mL; MIC ([1]; MRSA, S. aureus MMX 9204, MRSA Lev^R Cip^R Ery^R Ox^R): 0.12 µg/mL; MIC ([1]; MRSA, S. aureus MMX 9205, MRSA Lev^R Cip^R CC^R Ery^R Ox^R): > 32 µg/mL; MIC (E. faecalis; E. faecalis MMX 8960): > 32 µg/mL; MIC (E. faecalis; E. faecalis MMX 8961): > 32 µg/mL; MIC (E. faecalis; E. faecalis MMX 8962): > 32 µg/mL; MIC [3]: ≥ 4 µg/mL"
CC1(C)S[C@@H]2[C@H](NC(=O)Cc3ccccc3)C(=O)N2[C@H]1C(=O)O [Penicillin],0.25,2,4,0.12,4,4,4,≤ 0.008,≤ 0.008,≤ 0.008,≤ 0.008,≤ 0.008,0.03,0.06,0.06,2,0.06,"MIC, CLSI QC range (S. pneumoniae [4]): (0.25-1) μg/mL"
